Source: ChEMBL document CHEMBL1155755, “Microbial transformation of pyrethrosin” (J Nat Prod, 2001)
Values after ≈ are worked out from the molar mass of the structure shown.

Assays:
Plasmodium falciparum [1] = experiment: Antiplasmodial activity against Plasmodium falciparum D6; assay type: functional, organism-based
Candida albicans = experiment: Antifungal activity against Candida albicans; assay type: functional, organism-based
SK-MEL = experiment: Cytotoxicity against human SK-MEL cells; assay type: functional, cell-based
Cryptococcus neoformans = experiment: Antifungal activity against Cryptococcus neoformans; assay type: functional, organism-based
Plasmodium falciparum [2] = experiment: Antiplasmodial activity against chloroquine-resistant Plasmodium falciparum W2; assay type: functional, organism-based
SK-OV-3 = experiment: Cytotoxicity against human SKOV3 cells; assay type: functional, cell-based
KB = experiment: Cytotoxicity against human KB cells; assay type: functional, cell-based

Structure (SMILES) | IC50 (Plasmodium falciparum [1]) | IC50 (Candida albicans) | IC50 (SK-MEL) | IC50 (Cryptococcus neoformans) | other results
CC(=O)O[C@H]1[C@H]2[C@H](C[C@@]3(C)[C@H](O)CC[C@@](C)(O)[C@H]13)OC(=O)[C@@H]2C | 0.88 mg/L (≈ 2.7 µM) | 10 mg/L (≈ 30.6 µM) |  |  | 
C=C1C(=O)O[C@H]2C[C@@]3(C)O[C@@H]3CC/C(C)=C/[C@@H](OC(C)=O)[C@H]12 [PYRETHROSIN] |  | 30 mg/L (≈ 97.9 µM) | 4.2 mg/L (≈ 13.7 µM) |  | 
CC(=O)O[C@H]1[C@H]2[C@H](C[C@]3(C)[C@@H]1[C@](C)(O)CC[C@H]3OC(C)=O)OC(=O)[C@@H]2C | 0.32 mg/L (≈ 0.869 µM) |  |  | 25 mg/L (≈ 67.9 µM) | IC50 (Plasmodium falciparum [2]): 0.38 mg/L (≈ 1.03 µM)
CC1=CC[C@@H](O)[C@]2(C)C[C@@H]3OC(=O)[C@H](C)[C@H]3[C@H](O)[C@@H]12 |  |  | 7.5 mg/L (≈ 28.2 µM) |  | 
C=C1CC[C@@H](O)[C@]2(C)C[C@@H]3OC(=O)[C@H](C)[C@H]3[C@H](OC(C)=O)[C@@H]12 |  |  |  |  | IC50 (SK-OV-3): 8 mg/L (≈ 25.9 µM); IC50 (KB): 1.1 mg/L (≈ 3.57 µM)
C=C1CC[C@@H](O)[C@]2(C)C[C@@H]3OC(=O)[C@H](C)[C@H]3[C@H](O)[C@@H]12 |  |  |  | 35 mg/L (≈ 131 µM) | 
